Test results reported in PMC7993727, “Discovery of a novel AR/HDAC6 dual inhibitor for prostate cancer treatment” (Aging (Albany NY), 2021).

Assays:
VCaP xenograft tumors = assay: castration-resistant VCaP xenograft mouse model; type: in vivo, NOD-SCID mice
Description: Figure 4 Zeta55 inhibits tumor growth in a CRPC xenograft model. (A) Percentage change in individual tumor volume of NOD-SCID mice with subcutaneous tumor xenograft grown from VCaP cells. NOD-SCID mice were castrated when the tumor volumes reached about 250mm^3 on 63 days after subcutaneous injection of VCaP cells. […]. Tumor sizes were monitored twice a week after treatment. (B) Mean tumor volumes (mm^3, +SEM) of NOD-SCID mice after treatment. (C) Mean body weight (g, +SEM) of NOD-SCID mice after treatment. *, P < 0.01 vs. vehicle.
The animal protocols used in this study were evaluated and approved by the Xiangya Hospital Medical ethics committee of Central South University. NOD-SCID mice were purchased from Hunan SJA Laboratory Animal Co. Ltd. with a quality license and raised in the SPF Laboratory Animal Room of the Department of Laboratory Zoology at Central South University. Briefly, VCaP cells were suspended in DMEM and Matrigel (BD) (1:1), and 5×10^6 cells/100 μl were subcutaneously injected into a 7-week-old male NOD-SCID mouse. […]. VCaP xenografts were measured twice per week in two dimensions (L and W) by a Vernier caliper, and the tumor volume was calculated as W^2×L/2 (mm^3).
Formalin-fixed, paraffin-embedded xenograft tissue sections were used for immunohistochemistry. TUNEL staining was performed according to the instructions in the TUNEL kit (KeyGEN). Tissue sections were deparaffinized and then boiled in 0.01 mol/L sodium citrate buffer (pH 6.0) in a kilowatt microwave oven for 10 minutes to retrieve cell antigens. Ki67 (Abcam, ab15580) or AR (SANTA, sc-7305) was used as the primary antibody. All tissue sections were immunohistochemically stained using the avidin-biotin-peroxidase method and were counterstained with hematoxylin. The staining intensities were evaluated at 100× magnification.

HDAC6 = molecular target: T1, HDAC6 (Homo sapiens, UniProt Q9UBN7); assay: fluorescent-based HDAC assay; type: biochemical; design: purchased BPS Bioscience
T1 sequence (Q9UBN7 1-1215): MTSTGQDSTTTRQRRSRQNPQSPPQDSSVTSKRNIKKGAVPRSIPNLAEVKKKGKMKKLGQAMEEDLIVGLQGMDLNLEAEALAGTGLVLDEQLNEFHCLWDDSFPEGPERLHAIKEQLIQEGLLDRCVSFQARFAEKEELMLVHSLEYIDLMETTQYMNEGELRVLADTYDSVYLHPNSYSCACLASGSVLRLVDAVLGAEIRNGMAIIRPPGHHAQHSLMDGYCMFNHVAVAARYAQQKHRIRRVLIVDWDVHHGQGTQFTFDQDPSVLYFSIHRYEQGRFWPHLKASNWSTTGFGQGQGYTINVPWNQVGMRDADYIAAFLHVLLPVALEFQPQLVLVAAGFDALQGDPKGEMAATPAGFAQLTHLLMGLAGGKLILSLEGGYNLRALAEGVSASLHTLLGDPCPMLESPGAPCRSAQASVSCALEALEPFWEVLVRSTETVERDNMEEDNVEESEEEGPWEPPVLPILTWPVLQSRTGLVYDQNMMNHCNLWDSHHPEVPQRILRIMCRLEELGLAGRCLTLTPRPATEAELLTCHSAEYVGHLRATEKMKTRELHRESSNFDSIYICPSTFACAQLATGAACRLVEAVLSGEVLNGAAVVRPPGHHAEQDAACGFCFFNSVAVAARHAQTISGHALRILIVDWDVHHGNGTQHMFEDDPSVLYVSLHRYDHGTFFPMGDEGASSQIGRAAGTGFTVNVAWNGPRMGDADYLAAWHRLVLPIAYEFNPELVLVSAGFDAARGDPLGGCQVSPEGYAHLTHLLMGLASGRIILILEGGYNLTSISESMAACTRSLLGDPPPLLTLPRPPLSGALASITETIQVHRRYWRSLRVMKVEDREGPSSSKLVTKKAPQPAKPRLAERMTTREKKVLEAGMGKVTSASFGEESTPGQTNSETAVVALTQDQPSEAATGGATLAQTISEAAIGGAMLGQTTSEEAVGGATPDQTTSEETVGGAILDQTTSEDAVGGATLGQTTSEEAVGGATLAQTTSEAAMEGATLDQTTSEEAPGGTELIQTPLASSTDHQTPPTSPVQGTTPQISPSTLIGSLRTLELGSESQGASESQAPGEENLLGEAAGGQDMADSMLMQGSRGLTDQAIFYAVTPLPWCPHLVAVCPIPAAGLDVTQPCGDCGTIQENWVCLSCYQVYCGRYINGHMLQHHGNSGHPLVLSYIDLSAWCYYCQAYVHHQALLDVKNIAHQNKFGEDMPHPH
Procedure: Commercial fluorescent assay kits were used to measure the activities of HDAC (BPS Bioscience). Briefly, the tested compounds were diluted in DMSO into a 96-well plate, and then assay buffer, HDAC, and substrate were added. The plate was incubated at 37° C for 30 minutes for enzymatic reactions, and the developer was added. After 10 minutes of incubation, the generated fluorescence was measured at an excitation of 380 nm and an emission of 460 nm.

Compound: N#Cc1ccc(N2C(=O)C3(CCC3)N(c3ccc(C(=O)NO)c(F)c3)C2=S)cc1C(F)(F)F [Zeta55]
- antitumor activity (VCaP xenograft tumors; 30 mg/kg/d oral, 49 days, compared with MDV3100 30 mg/kg/d): slightly better antitumor activity than MDV3100
- tumors with tumor regression (VCaP xenograft tumors; 60 mg/kg/d oral, 49 days, n=6, castrated NOD-SCID mice): 5 of 6
- weights of mice during treatment (VCaP xenograft tumors; 30 and 60 mg/kg daily oral): did not decrease significantly
- expression of AR and PSA in treated tumors (VCaP xenograft tumors; immunohistochemical and Western blot analysis, compared to MDV3100 and vehicle): decreased expression of AR and PSA
- Ki-67 staining of tumor xenografts (VCaP xenograft tumors; mouse, in vivo): inhibited tumor cell proliferation
- TUNEL staining of tumor xenografts (VCaP xenograft tumors; mouse, in vivo): induced apoptosis
- IC50 (HDAC6): 0.98 µM
- selectivity for HDAC6 over other HDACs tested (HDAC6; over HDAC1, 2, 3, 4): > 20 folds
